Active and inactive are the calls of the source.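 Rule for the calls: active = growth-inhibition EC50 no more than tenfold above the top tested dose; inconclusive = flat fit between 30% and 70% inhibition, or unreliable fit; inactive = EC50 more than tenfold above the top tested dose.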
The compounds below were run on E. coli NEB5alpha growth, BacTiter-Glo luminescence, 4 h (assay: antibacterial activity against E. coli NEB5alpha – luminescence, counter-screen for MEX-5/POS-1 RNA-binding inhibitor project, dose response (AID 1959);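 note: pUC19-transformed ampicillin-resistant cells grown in LB with ampicillin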).
For `Nc1c(NCCC2=CCCCC2)c(=O)[nH]c(=O)n1Cc1ccccc1`, the EC50 was > 11 µM (inactive).
With `COCc1cc(=O)n2[nH]c(-c3cccs3)cc2n1` the EC50 was > 11 µM (inactive).
With `CCCCN1C(=O)/C(=C2/Sc3ccc(OC)cc3N2CC)SC1=S` the EC50 was > 11 µM (inactive).
`Cc1c(C(=O)O)cccc1-n1c(C)cc(/C=C2\C(=O)NC(=O)N(c3ccc4c(c3)OCO4)C2=O)c1C` was tested, and the EC50 was > 11 µM (inactive).
For `CCN(CC)c1ccc(/C=c2/sc3nnc(-c4ccccc4C)n3c2=O)cc1`, the EC50 was > 11 µM (inactive).
`O=C(/C=C/c1ccc(O)c(O)c1)OC(Cc1ccc(O)c(O)c1)C(=O)O` (configuration not stated) was tested, and the EC50 was > 11 µM (inactive).
For `O=C(O)C1Nc2c(cccc2C(F)(F)F)C2C=CCC12` (configuration not stated), the EC50 was > 11 µM (inactive).
In the case of `CN(C)c1ccc(/C=C/C(=O)c2cccc(Br)c2)cc1`, the EC50 is reported as > 11 µM (inactive).
`Cc1cccc(N=Nc2c(O)[nH]c3ccc(Br)cc23)c1` was tested, and the EC50 was > 11 µM (inactive).
`COc1cc([C@H](Cc2ccccc2)NC(C)=O)oc(=O)c1` was tested, and the EC50 was > 11 µM (inactive).
`Cc1ccc(/C=C2/C(=O)c3ccc(C(=O)O)cc3C2=O)o1` was tested, and the EC50 was > 11 µM (inactive).
In the case of `COC(=O)c1ccc(C2Nc3ccc(/C(C)=N/NC(=O)C(OC)c4ccccc4)cc3C3C=CCC32)cc1` (configuration not stated), the EC50 is reported as > 11 µM (inactive).
`O=c1[nH]c(=O)n(-c2cccc(F)c2)c(O)c1/C=C1\C=Nc2ccccc21` was tested, and the EC50 was > 11 µM (inactive).
`Cc1ccc(C(=O)C2=C(O)C(=O)N(Cc3ccco3)C2c2ccc(N(C)C)cc2)o1` (configuration not stated) was tested, and the EC50 was > 11 µM (inactive).
With `COC(=O)CCC(=O)OC1(C)C(=O)C2=CN(CCCOC(C)C)C(c3ccc(OC)cc3)=CC2=C(Br)C1=O` (configuration not stated) the EC50 was > 11 µM (inactive).
With `O=C(c1ccc(Br)o1)N1CCN=C1SCc1cccc(F)c1` the EC50 was > 11 µM (inactive).
In the case of `CC1=N/C(=C/c2ccco2)C(=O)O1`, the EC50 is reported as > 11 µM (inactive).
In the case of `COc1cc(/C=C2\C(=O)NN(c3ccccc3)C2=O)cc([N+](=O)[O-])c1O`, the EC50 is reported as > 11 µM (inactive).
With `COc1cc2c(cc1OC)-c1c(OC)c(OC)cc3ccnc(c13)C2=O` the EC50 was > 11 µM (inactive).
For `O=C1c2cc(F)ccc2-n2c1nc1ccccc1c2=O`, the EC50 was > 11 µM (inactive).
With `CCOc1ccccc1-n1c(O)c(C=Nc2ccc(N(CC)CC)cc2)c(=O)[nH]c1=O` the EC50 was > 11 µM (inactive).
`COc1ccc(C(=O)/C=C/c2ccc(-c3ccccc3)cc2)cc1CSCC(=O)O` was tested, and the EC50 was > 11 µM (inactive).
`CCN(CC)C(=O)c1ccc2c(c1)C1C(Cl)C(Sc3ccccc3[N+](=O)[O-])CC1C(C(=O)O)N2` (configuration not stated) was tested, and the EC50 was > 11 µM (inactive).
For `COc1ccc(/C=C/c2ccc3c(Br)ccc(O)c3n2)cc1`, the EC50 was > 11 µM (inactive).
In the case of `CCC(C)n1c(O)c(/C=N/Nc2nc3c(c(=O)n(C)c(=O)n3C)n2C)c(=O)[nH]c1=S` (configuration not stated), the EC50 is reported as > 11 µM (inactive).
`CCCOc1ccc(/C=c2\sc3nc(-c4ccco4)nn3c2=O)cc1OCC` was tested, and the EC50 was > 11 µM (inactive).
With `CC1(OC(=O)C2CCCC2)C(=O)C=C2C=C(C3CC3)OC=C2C1=O` (configuration not stated) the EC50 was > 11 µM (inactive).
For `Cc1cc(/C=C2\C(=O)NC(=O)N(c3ccc(Cl)cc3)C2=O)c(C)n1-c1cccc(C(=O)O)c1`, the EC50 was > 11 µM (inactive).
`CN(C)c1ccc(-c2nnc(-c3ccc(S(=O)(=O)C(F)F)cc3)o2)cc1` was tested, and the EC50 was > 11 µM (inactive).
With `CN1/C(=C/C=C(C#N)C#N)C(C)(C)c2ccccc21` the EC50 was > 11 µM (inactive).
In the case of `c1ccc(-c2cn3nc(-c4ccccc4)c(-c4ccccc4)nc3n2)cc1`, the EC50 is reported as > 11 µM (inactive).
`CCOc1ccc(N2C(=O)/C(=C/c3ccco3)C(=O)NC2=S)cc1` was tested, and the EC50 was > 11 µM (inactive).
In the case of `N=c1c(C(=O)NCc2ccc(F)cc2)cc2c(=O)n3ccccc3nc2n1Cc1cccnc1`, the EC50 is reported as > 11 µM (inactive).
`N=c1c(C(=O)NCCN2CCOCC2)cc2c(=O)n3ccccc3nc2n1CCc1ccccc1` was tested, and the EC50 was > 11 µM (inactive).
For `O=C1c2ccccc2C(=O)c2c1cccc2N(CCO)CCO`, the EC50 was > 11 µM (inactive).
With `CN(C)c1ccc2nc3ccc(=[N+](C)C)cc-3sc2c1` the EC50 was > 11 µM (inactive).
`Cc1ccc(O)c(-c2cc(C(=O)Nc3ccc(S(=O)(=O)Nc4nccc(C)n4)cc3)[nH]n2)c1` was tested, and the EC50 was > 11 µM (inactive).

— PubChem BioAssay AID1959 (Broad Institute, 2009)
